Positions count from the first letter of the chain named.

Assay [1] deals with T1, Kinesin-like protein KIF11 (Homo sapiens) (UniProt P52732).
T1 sequence (whole entry): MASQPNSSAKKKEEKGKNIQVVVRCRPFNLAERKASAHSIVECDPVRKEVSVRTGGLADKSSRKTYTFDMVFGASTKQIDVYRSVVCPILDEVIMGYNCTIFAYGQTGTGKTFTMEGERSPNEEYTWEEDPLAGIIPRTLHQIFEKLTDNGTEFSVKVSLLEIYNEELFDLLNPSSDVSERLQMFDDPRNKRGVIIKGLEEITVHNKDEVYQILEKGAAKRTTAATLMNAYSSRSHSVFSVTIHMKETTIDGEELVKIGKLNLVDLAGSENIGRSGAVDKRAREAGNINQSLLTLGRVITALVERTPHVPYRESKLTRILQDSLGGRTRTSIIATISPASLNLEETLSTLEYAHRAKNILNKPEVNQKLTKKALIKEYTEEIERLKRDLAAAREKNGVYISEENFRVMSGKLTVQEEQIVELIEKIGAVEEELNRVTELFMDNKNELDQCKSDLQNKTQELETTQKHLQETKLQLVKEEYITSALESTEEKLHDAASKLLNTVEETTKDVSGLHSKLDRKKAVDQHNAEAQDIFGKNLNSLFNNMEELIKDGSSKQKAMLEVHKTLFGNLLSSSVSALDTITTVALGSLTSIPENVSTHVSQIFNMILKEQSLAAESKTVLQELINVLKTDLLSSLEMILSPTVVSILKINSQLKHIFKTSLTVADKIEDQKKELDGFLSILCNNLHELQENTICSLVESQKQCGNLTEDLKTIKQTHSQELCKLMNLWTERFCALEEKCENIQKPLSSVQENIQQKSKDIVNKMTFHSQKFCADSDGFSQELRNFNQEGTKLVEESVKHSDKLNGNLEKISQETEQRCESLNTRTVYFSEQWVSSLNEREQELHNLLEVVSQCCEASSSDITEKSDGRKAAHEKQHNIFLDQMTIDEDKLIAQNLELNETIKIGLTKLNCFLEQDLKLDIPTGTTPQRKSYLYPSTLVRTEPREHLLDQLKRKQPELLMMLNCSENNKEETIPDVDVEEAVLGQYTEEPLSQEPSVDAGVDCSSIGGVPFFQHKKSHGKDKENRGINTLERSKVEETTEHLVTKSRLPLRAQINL
Kind of assay: Inhibition of microtubule-stimulated ATPase activity of N-terminal His-6-tagged human wild type Eg5 (1 to 368) expressed in Escherichia coli BL21 by pyruvate kinase/lactate dehydrogenase-linked assay relative to control.

Assay [2] has as its system T2, Kinesin-like protein KIF11 (Homo sapiens), P52732 [D130V].
T2 sequence (whole entry): T1 sequence (whole entry) with D130V
Kind of assay: Inhibition of microtubule-stimulated ATPase activity of human Eg5 D130V mutant expressed in Escherichia coli BL21 by pyruvate kinase/lactate dehydrogenase-linked assay relative to control.

The subject of assay [3] is T3, Kinesin-like protein KIF11 (Homo sapiens), P52732 [D130V,A133D].
T3 sequence (whole entry): T1 sequence (whole entry) with D130V, A133D
Description: Inhibition of microtubule-stimulated ATPase activity of human Eg5 D130V/A133D mutant expressed in Escherichia coli BL21 by pyruvate kinase/lactate dehydrogenase-linked assay relative to control.

Assay [4] deals with T4, Kinesin-like protein KIF11 (Homo sapiens), P52732 [A133D].
T4 sequence (whole entry): T1 sequence (whole entry) with A133D
Kind of assay: Inhibition of microtubule-stimulated ATPase activity of human Eg5 A133D mutant expressed in Escherichia coli BL21 by pyruvate kinase/lactate dehydrogenase-linked assay relative to control.

For the compound `Cc1ccc(C(=O)N(CCCN)[C@@H](c2oc3cc(Cl)ccc3c(=O)c2Cc2ccccc2)C(C)C)cc1`, the ICmax was found to be 95% in assay [1], 50% in assay [2], 10% in assay [3] and 50% in assay [4].

The values are drawn from ChEMBL document CHEMBL2417484, “Mitotic kinesin Eg5 overcomes inhibition to the phase I/II clinical candidate SB743921 by an allosteric resistance mechanism” (J Med Chem, 2013).
